# Data as given in article PMC2653189 (PLoS ONE, 2009).
# Legend:
# Assay in all cases: Breast cancer cell line apoptosis assay (nucleosome ELISA)
# Format in all cases: cell-based
# Conditions in all cases: Homo sapiens, 24 hr, read-out: EC50 apoptosis induction
# MDA-MB-453 = test system: MDA-MB-453
# Experimental: (§1) Human breast carcinoma cell lines MDA-MB-468, MDA-MB-231, MBA-MD-435 and MCF7 were kindly provided by Dr. Powel H. Brown (Breast Cancer Center, Baylor College of Medicine). Breast cancer cell line, MDA-MB-453 was kindly provided by Dr. Shou Jiang (Breast Cancer Center, Baylor College of Medicine). All cell lines were grown in DMEM medium supplemented with 10% fetal bovine serum (FBS), 25,000 units penicillin G, 25,000 µg streptomycin, and 131.4 mg L-Glutamine and cultured in the incubator under the condition of 95% air, 5% CO2 at 37°C [33]. Cells were seeded at 2,500 cells/cm^2 into 12-well plates. At 80% confluency, cells were washed with PBS and supplemented with fresh medium containing compound or the topoisomerase I-inhibitor, camptothecin, at 0, 0.1, 0.3, 1, 3, 10, 30, 100, 300 µM. At 24 hours, treatment was terminated by removing the medium from each well. Cells were lysed with cell lysis buffer (600 µl for 30 minutes at 25°C). Cell lysate (200 µl) was centrifuged at 200 g for 10 minutes and 20 µl of each supernatant was assayed for nucleosomes using the Cell Death Detection ELISA (Roche Applied Science) as described by the manufacturer. The percent maximum nucleosome level was calculated by dividing the nucleosome level by the maximum nucleosome level achieved in the assay and multiplying by 100. This value was plotted as a function of the log compound concentration and the best-fitting curve and EC50 value determined using 4-Parameter Logistic Model/Dose Response/XLfit 4.2, IDBS software.
# (§2) Figure 5 Apoptosis induction of breast cancer cell lines by compounds; selective apoptosis of cell lines that are Stat3 dependent. MDA-MB-468 (panel A), MDA-MB-231 (panel B), MDA-MB-435 (panel C), MCF7 (panel D) and MDA-MB-453 (panel E) were seeded in 12-well plates, grown overnight then treated with the indicated compound for 24 hr. Cells were centrifuged and the supernatants assayed for nucleosome levels by ELISA. The percent maximum nucleosome level was calculated (nucleosome level ÷ maximum nucleosome level achieved in the assay ×100) and plotted as a function of the log compound concentration. The best-fitting curve was determined using 4-ParameterLogistic Model/Dose Response One Site/XLfit 4.2, IDBS software and was used to determine the EC50 value (Table 3).
# MDA-MB-435 = test system: MDA-MB-435
# Experimental: as §1, §2
# MDA-MB-231 = test system: MDA-MB-231
# Experimental: as §1, §2
# MDA-MB-468 = test system: MDA-MB-468
# Experimental: as §1, §2
# MCF7 = test system: MCF7
# Experimental: as §1, §2
compound,measurement,setting,value
"O=C(O)c1ccc(C=CC(=O)c2ccc3c(c2)OCCO3)cc1 [Cpd3, 4-[3-(2,3-dihydro-1,4-benzodioxin-6-yl)-3-oxo-1-propen-1-yl]benzoic acid]",EC50,MDA-MB-453,> 300 µM
same,EC50,MDA-MB-435,16.5 µM
same,EC50,MDA-MB-231,26.9 µM
same,EC50,MDA-MB-468,2.28 µM
same,EC50,MCF7,> 300 µM
